Measured values as given in US8426408B2, “Pyrimidine inhibitors of kinases” (AbbVie Inc., priority 2009, dated 2013).

Experiments:
Format in all cases: biochemical
[1] = biological target: KDR (Homo sapiens, UniProt P35968); assay: KDR HTRF in vitro kinase assay; parameters: purified enzyme (His6-KDR 789-1354, MW 63 kD); His6 (N); settings: 1 mM ATP; read-out: KDR enzyme inhibition data (Ki)
Procedure: To determine the activity of the various kinases, a homogenous time-resolved fluorescence (HTRF) in vitro kinase assay was used. (Mathis, G., HTRF® Technology. J Biomol Screen, 1999. 4(6): p. 309-314; Alfred J. Kolb, Paul V. Kaplita, David J. Hayes, Young-Whan Park, Christine Pernell, John S. Major and Gerard Mathis, Drug Discovery Today, 1998, 3, 333-342.)
For example for KDR, 7 ng/well of purified enzyme (His6-KDR 789-1354, MW 63 kD) was mixed with 0.5 μM N-biotinylated substrate (Biotin-Ahx-AEEEYFFLA-amide (SEQ. ID. 1)), various concentrations of inhibitor in reaction buffer (50 mM HEPES, pH 7.1, 10 mM MgCl2, 2 mM MnCl2, 0.1% BSA and 1 mM DTT, 40 L final volume), ATP (1 mM final conc.) in a black 384-well plate. After 60 minutes incubation at room temperature, the reaction was quenched by addition of a buffered EDTA solution (final approximate concentrations: 30 mM EDTA, 0.1% BSA, 0.1% Triton X-100 and 0.24M KF) and a solution of revelation agents (to give 0.084 ng/well streptavidin-XL-665 (Cis-Bio) and 6.5 ng/well antiphsophotyrosine mAb PT66-K Europium kryptate) was added to the reaction mixture. The quenched reaction was allowed to stand at room temperature for 3 hours and was then read in a time-resolved fluorescence detector (InVision, Perkin-Elmer) at 620 nm and 665 nm sequentially with excitation. The ratio between the signal of 620 nm and 665 nm was used in the calculation of the IC50.

[2] = biological target: T1, Aurora A (Homo sapiens, UniProt O14965); assay: Aurora A enzyme inhibition (time-resolved fluorescence, STK substrate-2); settings: 1 mM ATP
T1 sequence (O14965 1-403): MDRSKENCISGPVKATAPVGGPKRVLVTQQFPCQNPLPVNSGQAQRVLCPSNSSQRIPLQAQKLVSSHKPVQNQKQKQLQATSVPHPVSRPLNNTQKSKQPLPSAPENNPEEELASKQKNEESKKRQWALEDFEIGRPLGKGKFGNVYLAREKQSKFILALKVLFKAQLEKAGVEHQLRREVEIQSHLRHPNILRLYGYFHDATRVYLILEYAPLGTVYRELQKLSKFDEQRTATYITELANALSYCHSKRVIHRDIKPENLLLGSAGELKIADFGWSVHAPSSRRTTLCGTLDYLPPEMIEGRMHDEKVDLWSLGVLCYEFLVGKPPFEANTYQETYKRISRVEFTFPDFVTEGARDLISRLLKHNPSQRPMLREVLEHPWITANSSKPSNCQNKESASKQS
Procedure: To determine Aurora A and C activity of representative compounds of the invention, Active Aurora A or C enzyme was incubated in wells of a 384 well plate with biotinylated STK substrate-2 (Upstate), 1 mM ATP, and various concentrations of inhibitors in a Hepes buffer, pH 7.4 containing MgCl2, sodium othrovanadate, and Triton X-100. After 1 hour, the reaction was stopped with EDTA and anti-phospho-STK antibody Europium Cryptate (Upstate) and SA-XL665 (Upstate) were added to detect the phosphopeptide. The amount of phosphorylation was determined by the time-resolved fluorescence ratio of signals at 665 nm and 615 nm. The IC50s were calculated by an exponential fit of the inhibition values with the inhibitor concentrations using Assay Explorer software.

[3] = biological target: T2, Aurora B (Homo sapiens, UniProt Q96GD4); assay: Aurora B enzyme inhibition (time-resolved fluorescence, histone H3 peptide); settings: 1 mM ATP
T2 construct: Active Aurora B enzyme (recombinant residues 1-344)
Procedure: To determine Aurora B activity of representative compounds of the invention, Active Aurora B enzyme (recombinant residues 1-344) and INCENP (recombinant GST fusion protein (Upstate)) were incubated in wells of a 384 well plate with biotinylated histone H3 peptide residues 1-21 (Upstate), 1 mM ATP, and various concentrations of inhibitors in a HEPES buffer, pH 7.4 containing MgCl2, sodium othrovanadate, and Triton X-100. After 1 hour, the reaction was stopped with EDTA and anti-phospho-histone H3 Europium Cryptate (Cis-Bio) and SA-APC (Phycolink, Prozyme) were added to detect the phosphopeptide. The amount of phosphorylation was determined by the time-resolved fluorescence ratio of signals at 665 nm and 615 nm. The IC50's were calculated by an exponential fit of the inhibition values with the inhibitor concentrations using Assay Explorer software.

Chain of KDR (P35968 789-1354): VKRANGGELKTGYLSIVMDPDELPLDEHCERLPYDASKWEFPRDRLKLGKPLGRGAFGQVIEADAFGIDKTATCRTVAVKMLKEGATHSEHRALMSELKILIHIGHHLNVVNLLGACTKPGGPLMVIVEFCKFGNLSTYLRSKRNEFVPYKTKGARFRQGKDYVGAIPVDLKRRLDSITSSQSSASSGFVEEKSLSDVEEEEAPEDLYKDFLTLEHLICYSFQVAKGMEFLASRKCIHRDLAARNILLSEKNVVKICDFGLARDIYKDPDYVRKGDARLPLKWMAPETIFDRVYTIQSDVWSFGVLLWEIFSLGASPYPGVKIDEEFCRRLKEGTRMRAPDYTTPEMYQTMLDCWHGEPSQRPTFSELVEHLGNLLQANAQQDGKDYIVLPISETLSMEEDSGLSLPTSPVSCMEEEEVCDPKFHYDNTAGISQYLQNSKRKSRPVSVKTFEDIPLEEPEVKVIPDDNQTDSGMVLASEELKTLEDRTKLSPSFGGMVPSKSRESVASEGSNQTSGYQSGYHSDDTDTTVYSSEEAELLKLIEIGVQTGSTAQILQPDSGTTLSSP
T2 sequence (Q96GD4 whole entry, the tested form may be a part): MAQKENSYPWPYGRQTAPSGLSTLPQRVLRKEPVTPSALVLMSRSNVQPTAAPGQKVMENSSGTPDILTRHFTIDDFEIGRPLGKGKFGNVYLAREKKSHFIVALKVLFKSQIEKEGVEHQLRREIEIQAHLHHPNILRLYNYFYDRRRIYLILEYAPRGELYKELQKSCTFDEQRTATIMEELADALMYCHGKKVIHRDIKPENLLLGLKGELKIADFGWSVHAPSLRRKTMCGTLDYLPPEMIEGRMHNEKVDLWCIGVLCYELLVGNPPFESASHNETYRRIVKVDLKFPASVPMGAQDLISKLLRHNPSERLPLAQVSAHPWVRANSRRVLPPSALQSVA
T2 sequence (Q9NQS7 826-918 partner limits assumed): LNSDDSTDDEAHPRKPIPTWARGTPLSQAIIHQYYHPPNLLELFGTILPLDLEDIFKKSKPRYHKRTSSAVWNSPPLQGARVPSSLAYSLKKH

| Ki [1] | Ki [2] | Ki [3] | Compound |
| --- | --- | --- | --- |
| < 0.1 µM | < 0.1 µM | < 0.1 µM | 5-chloro-N^2-(1H-indazol-5-yl)-N^2-{1-[2-(pyrrolidin-1-yl)ethyl]-1H-pyrazol-4-yl}pyrimidine-2,4-diamine [Example 177] |
| 1 to 5 µM | 1 to 5 µM | 0.1 to 1 µM | Cn1cc(Nc2ncc(F)c(N[C@@H]3C[C@H]4CC[C@@H]3C4)n2)cn1.Cn1cc(Nc2ncc(F)c(N[C@H]3C[C@@H]4CC[C@H]3C4)n2)cn1 (mixture of isomers) [Example 3, N^4-[(1S,2S,4R)-bicyclo[2.2.1]hept-2-yl]-5-fluoro-N^2-(1-methyl-1H-pyrazol-4-yl)pyrimidine-2,4-diamine and N^4-[(1R,2R,4S)-bicyclo[2.2.1]hept-2-yl]-5-fluoro-N^2-(1-methyl-1H-pyrazol-4-yl)pyrimidine-2,4-diamine] |
| > 5 µM | > 5 µM | 0.1 to 1 µM | Cn1cc(Nc2ncc(F)c(N[C@@H]3CCC[C@@H]3C(N)=O)n2)cn1.Cn1cc(Nc2ncc(F)c(N[C@H]3CCC[C@H]3C(N)=O)n2)cn1 (mixture of isomers) [Example 4, (1S,2R)-2-({5-fluoro-2-[(1-methyl-1H-pyrazol-4-yl)amino]pyrimidin-4-yl}amino)cyclopentanecarboxamide and (1R,2S)-2-({5-fluoro-2-[(1-methyl-1H-pyrazol-4-yl)amino]pyrimidin-4-yl}amino)cyclopentanecarboxamide] |
| > 5 µM | > 5 µM | 0.1 to 1 µM | CCOC(=O)[C@@H]1[C@H](Nc2nc(Nc3cnn(C)c3)ncc2F)[C@H]2C=C[C@@H]1C2.CCOC(=O)[C@H]1[C@@H](Nc2nc(Nc3cnn(C)c3)ncc2F)[C@@H]2C=C[C@H]1C2 (mixture of isomers) [Example 7, ethyl(1S,2S,3R,4R)-3-({5-fluoro-2-[(1-methyl-1H-pyrazol-4-yl)amino]pyrimidin-4-yl}amino)bicyclo[2.2.1]hept-5-ene-2-carboxylate and ethyl(1R,2R,3S,4S)-3-({5-fluoro-2-[(1-methyl-1H-pyrazol-4-yl)amino]pyrimidin-4-yl}amino)bicyclo[2.2.1]hept-5-ene-2-carboxylate] |
| 1 to 5 µM | 0.1 to 1 µM | < 0.1 µM | CC(O)Cn1cc(Nc2ncc(F)c(NC3C4C=CC(C4)C3C(N)=O)n2)cn1 (mixture of isomers) [Example 15, (1R,2R,3S,4S)-3-{[5-fluoro-2-({1-[(2R)-2-hydroxypropyl]-1H-pyrazol-4-yl}amino)pyrimidin-4-yl]amino}bicyclo[2.2.1]hept-5-ene-2-carboxamide and (1S,2S,3R,4R)-3-{[5-fluoro-2-({1-[(2R)-2-hydroxypropyl]-1H-pyrazol-4-yl}amino)pyrimidin-4-yl]amino}bicyclo[2.2.1]hept-5-ene-2-carboxamide] |
| 1 to 5 µM | 0.1 to 1 µM | 0.1 to 1 µM | C[C@@H](O)Cn1cc(Nc2ncc(F)c(N[C@@H]3[C@H]4CC[C@H](C4)[C@@H]3C(N)=O)n2)cn1.C[C@@H](O)Cn1cc(Nc2ncc(F)c(N[C@H]3[C@@H]4CC[C@@H](C4)[C@H]3C(N)=O)n2)cn1 (mixture of isomers) [Example 16, (1S,2R,3S,4R)-3-{[5-fluoro-2-({1-[(2R)-2-hydroxypropyl]-1H-pyrazol-4-yl}amino)pyrimidin-4-yl]amino}bicyclo[2.2.1]heptane-2-carboxamide and (1R,2S,3R,4S)-3-{[5-fluoro-2-({1-[(2R)-2-hydroxypropyl]-1H-pyrazol-4-yl}amino)pyrimidin-4-yl]amino}bicyclo[2.2.1]heptane-2-carboxamide] |
| < 0.1 µM | < 0.1 µM | < 0.1 µM | CN(C)CCn1cc(Nc2ncc(Cl)c(N[C@@H]3[C@H](C(N)=O)[C@H]4C=C[C@@H]3C4)n2)cn1.CN(C)CCn1cc(Nc2ncc(Cl)c(N[C@H]3[C@@H](C(N)=O)[C@@H]4C=C[C@H]3C4)n2)cn1 (mixture of isomers) [Example 33, (1S,2S,3R,4R)-3-{[5-chloro-2-({1-[2-(dimethylamino)ethyl]-1H-pyrazol-4-yl}amino)pyrimidin-4-yl]amino}bicyclo[2.2.1]hept-5-ene-2-carboxamide and (1R,2R,3S,4S)-3-{[5-chloro-2-({1-[2-(dimethylamino)ethyl]-1H-pyrazol-4-yl}amino)pyrimidin-4-yl]amino}bicyclo[2.2.1]hept-5-ene-2-carboxamide] |
| < 0.1 µM | < 0.1 µM | < 0.1 µM | NC(=O)[C@@H]1[C@H](Nc2nc(Nc3cnn(CCN4CCCCC4)c3)ncc2Cl)[C@H]2C=C[C@@H]1C2.NC(=O)[C@H]1[C@@H](Nc2nc(Nc3cnn(CCN4CCCCC4)c3)ncc2Cl)[C@@H]2C=C[C@H]1C2 (mixture of isomers) [Example 36, (1S,2S,3R,4R)-3-[(5-chloro-2-{[1-(2-piperidin-1-ylethyl)-1H-pyrazol-4-yl]amino}pyrimidin-4-yl)amino]bicyclo[2.2.1]hept-5-ene-2-carboxamide and (1R,2R,3S,4S)-3-[(5-chloro-2-{[1-(2-piperidin-1-ylethyl)-1H-pyrazol-4-yl]amino}pyrimidin-4-yl)amino]bicyclo[2.2.1]hept-5-ene-2-carboxamide] |
| < 0.1 µM | < 0.1 µM | < 0.1 µM | NC(=O)[C@@H]1[C@H](Nc2nc(Nc3cnn(CCN4CCCCC4)c3)ncc2Br)[C@H]2C=C[C@@H]1C2.NC(=O)[C@H]1[C@@H](Nc2nc(Nc3cnn(CCN4CCCCC4)c3)ncc2Br)[C@@H]2C=C[C@H]1C2 (mixture of isomers) [Example 38, (1S,2S,3R,4R)-3-[(5-bromo-2-{[1-(2-piperidin-1-ylethyl)-1H-pyrazol-4-yl]amino}pyrimidin-4-yl)amino]bicyclo[2.2.1]hept-5-ene-2-carboxamide and (1R,2R,3S,4S)-3-[(5-bromo-2-{[1-(2-piperidin-1-ylethyl)-1H-pyrazol-4-yl]amino}pyrimidin-4-yl)amino]bicyclo[2.2.1]hept-5-ene-2-carboxamide] |
| < 0.1 µM | < 0.1 µM | < 0.1 µM | NC(=O)[C@@H]1[C@H](Nc2nc(Nc3cnn(CCN4CCOCC4)c3)ncc2Br)[C@H]2C=C[C@@H]1C2.NC(=O)[C@H]1[C@@H](Nc2nc(Nc3cnn(CCN4CCOCC4)c3)ncc2Br)[C@@H]2C=C[C@H]1C2 (mixture of isomers) [Example 39, (1S,2S,3R,4R)-3-[(5-bromo-2-{[1-(2-morpholin-4-ylethyl)-1H-pyrazol-4-yl]amino}pyrimidin-4-yl)amino]bicyclo[2.2.1]hept-5-ene-2-carboxamide and (1R,2R,3S,4S)-3-[(5-bromo-2-{[1-(2-morpholin-4-ylethyl)-1H-pyrazol-4-yl]amino}pyrimidin-4-yl)amino]bicyclo[2.2.1]hept-5-ene-2-carboxamide] |
| < 0.1 µM | < 0.1 µM | < 0.1 µM | Cn1cc(Nc2ncc(Cl)c(N[C@@H]3CCC[C@@H]3C(N)=O)n2)cn1.Cn1cc(Nc2ncc(Cl)c(N[C@H]3CCC[C@H]3C(N)=O)n2)cn1 (mixture of isomers) [Example 43, (1S,2R)-2-({5-chloro-2-[(1-methyl-1H-pyrazol-4-yl)amino]pyrimidin-4-yl}amino)cyclopentanecarboxamide and (1R,2S)-2-({5-chloro-2-[(1-methyl-1H-pyrazol-4-yl)amino]pyrimidin-4-yl}amino)cyclopentanecarboxamide] |
